Experimental findings from PubChem BioAssay AID179 (DTP/NCI, 2004) are described below.

Calls of active or inactive are those of the source.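 How the source made its calls: active means compounds giving half or more protection of infected cells from virus-caused growth loss, again on retest; inactive means the rest.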 Where a SMILES comes first, the peptide text is derived from it. [ ]: non-standard residue; d: D form. The star is where a group is joined. ξ: configuration not given here. X13 = COc1ccc(C(N*)c2ccc(OC)cc2)cc1; NMeF = CN[C@@H](Cc1ccccc1)C(=O)O; NMeD = CN[C@@H](CC(=O)O)C(=O)O; NMeV = CN[C@H](C(=O)O)C(C)C; ξNMeV = CNC(C(=O)O)C(C)C; Boc = CC(C)(C)OC(=O)*; ξNMeA = CNC(C)C(=O)O; ξV = CC(C)C(N)C(=O)O

The EC50 is the concentration that produces a half-maximal response. One may read the IC50 as the midpoint of a concentration-inhibition curve.

The test system of this assay is CEM cells HIV-1 protection, formazan growth assay. The experiment in a line: NCI AIDS Antiviral Assay. The note with it: for IC50: measured here: growth of uninfected CEM cells. Summed up: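 Human CEM cells, uninfected and HIV-1-infected, received five drug concentrations, and growth was read by soluble formazan assay. Compounds giving at least 50% protection were retested; reproducible 100% protection defined confirmed active.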

With `O=C(O)[C@@H]1C2C3CC4C2C4C3[C@@H]1C(=O)O`, the result was inactive.
Consider `Cc1cc(C)nc(NS(=O)(=O)c2ccc(Nc3c4ccccc4nc4c(C(=O)NCCN(C)C)ccc(Cl)c34)cc2)n1`, for which the outcome was inactive.
Turning to `CC1=NS(=O)(=O)NC(C)(C)C1`, the EC50 was above 200 µM and the 50% inhibitory concentration (IC50) was above 200 µM.
For `O=C(N1CCCCC(Cl)(Cl)C1=O)C(Cl)(Cl)Cl`, the EC50 was above 759 µM and the IC50 is above 759 µM.
Take `Cc1ccc(-c2c3nc(c(-c4ccc(C)cc4)c4ccc([nH]4)c(-c4ccc(C)cc4)c4nc(c(-c5ccncc5)c5ccc2[nH]5)C=C4)C=C3)cc1.Cc1ccc(-c2c3nc(c(-c4ccc(C)cc4)c4ccc([nH]4)c(-c4ccc(C)cc4)c4nc(c(-c5ccncc5)c5ccc2[nH]5)C=C4)C=C3)cc1.O=S(=O)([O-])C(F)(F)F.[Pd+2].c1ccc([PH+](CCC[PH+](c2ccccc2)c2ccccc2)c2ccccc2)cc1`: the EC50 was above 50.1 µM and the IC50 was determined as 3.47 µM.
Regarding `C[n+]1c2ccccc2c(CNc2ccc(S(=O)(=O)N=C(N)N)cc2)c2ccccc21`, the outcome was inactive.
Turning to `O=C1OC(c2ccccc2)=N/C1=C\c1ccc(Br)cc1`, the EC50 is above 4.37 µM and the 50% inhibitory concentration (IC50) is above 4.37 µM.
Regarding `COC1=CC(=O)c2c(O)c3c(c(O)c2C1=O)C=C(C)OC3O` (configuration not stated), the outcome was inactive.
For `CC1OC(OC2CC(O)(C(=O)CO)Cc3c(O)c4c(c(O)c32)C(=O)c2ccccc2C4=O)CC(N)C1O` (configuration not stated), the EC50 was above 0.2 µM and the IC50 was 0.0631 µM.
For `C=C1CN(S(=O)(=O)c2ccc(C)cc2)CCCN(C(=O)OC(C)C)CCCN(S(=O)(=O)c2ccc(C)cc2)C1` the same measures were above 200 µM and 14.1 µM.
Regarding `COC(=O)c1c2c(cc3c1CC1(Cc4ccc(C(C)=O)cc4C1)C3)CCC2` (configuration not stated), the EC50 is above 200 µM and the concentration for half-maximal inhibition (IC50) is above 200 µM.
For the compound `CC(C)(C)COC1C2(OCCO2)C2CCC1(C)C2(C)C` (configuration not stated), the EC50 is above 200 µM and the IC50 was above 200 µM.
Turning to `CC(C)CC(NC(=O)C(COc1ccc([N+](=O)[O-])cc1)Cc1ccccc1)C(=O)Nc1ccccc1` (configuration not stated), the EC50 is above 100 µM and the half-inhibitory concentration (IC50) was found to be 15.1 µM.
For `O=C(O)CC[C@@]1(C(=O)O)NC(C(=O)O)Cc2[nH]cnc21` (some centres not stated) the same measures were above 437 µM and above 437 µM.
As for `Cc1cc(C(=O)Nc2ccc(NC3=NCCN3)cc2)c(C)cc1C(=O)Nc1ccc(NC2=NCCN2)cc1`, the EC50 was above 200 µM and the IC50 turned out to be 20.4 µM.
In the case of `Cc1ccc(Nc2nnc(CSc3ccc(Cl)cc3)s2)c(S(=O)(=O)O)c1`, the EC50 is above 200 µM and the IC50 is 148 µM.
Consider `O=C(CN1CCOCC1)CC(O)(C(F)(F)F)C(F)(F)F`, for which the EC50 was above 200 µM and the 50% inhibitory concentration (IC50) came out at 95.5 µM.
For `CC(=O)Nc1ccc(C2=N/C(=C\c3ccc(Cl)c(Cl)c3)C(=O)O2)cc1` the same measures were above 7.24 µM and above 7.24 µM.
Compound `O=c1ccc2c(-c3ccccc3S(=O)(=O)O)c3ccc(O)c(O)c3oc-2c1O` showed an EC50 of 2.4 µM and an IC50 above 200 µM.
For the compound `COc1ccc(C(NC(=O)C[C@@H](C(=O)N(C)C(C)C(=O)O)N(C)C(=O)[C@@H]2CCCN2C(=O)[C@H](C(C)C)N(C)C(=O)C(C(C)C)N(C)C(=O)[C@H](Cc2ccccc2)N(C)C(=O)C(NC(=O)OC(C)(C)C)C(C)C)c2ccc(OC)cc2)cc1` (some centres not stated) (Boc-[ξV][NMeF][ξNMeV][NMeV]P[NMeD](X13)[ξNMeA]-OH), the EC50 was above 158 µM and the 50% inhibitory concentration (IC50) was 23.4 µM.
On to `CC(=O)NNC(=S)/N=C\c1c(O)[nH]c(=O)[nH]c1=O`, for which the EC50 was above 200 µM and the 50% inhibitory concentration (IC50) is above 200 µM.
As for `COC(=O)C1=CC(=O)N2CCN=C2S1`, the EC50 was above 200 µM and the concentration for half-maximal inhibition (IC50) is above 200 µM.
Take `CCOP(=O)(/C=C(\Cl)c1ccccc1)OCC`: the EC50 is above 129 µM and the IC50 is above 129 µM.
Regarding `CCCCCCCCCCCCCCCCNc1ccn(C2OC(COP(=O)(O)OC3CC(n4cc(C)c(=O)[nH]c4=O)OC3CO)C(O)C2O)c(=O)n1` (configuration not stated), the EC50 is above 200 µM and the concentration for half-maximal inhibition (IC50) is 19.1 µM.
With `C=CCNC1=C2C[C@@H](C)C[C@@H](OC)[C@@H](OC(=O)CCCN)[C@H](C)/C=C(\C)[C@@H](OC(N)=O)[C@H](OC)/C=C\C=C(/C)C(=O)NC(=CC1=O)C2=O`, the EC50 was above 200 µM and the IC50 amounted to 5.5 µM.
As to `CC(C)CC(N)C(=O)NC(CC(=O)O)C(=O)NC(CCCCN)C(=O)NC(C)C(=O)NC(CO)C(=O)NC(Cc1ccc(O)cc1)C(=O)NC(CO)C(=O)NC(C(=O)NC(CC(N)=O)C(=O)NC(Cc1cnc[nH]1)C(=O)O)C(C)O` (configuration not stated) (H-LDKASYSTNH-OH; configuration not given here), the EC50 is above 21.9 µM and the half-maximal inhibitory concentration (IC50) is above 21.9 µM.
With `CCOC(=O)C1C(c2ccc(OC)cc2)c2c([nH][nH]c2=O)CC1(C)O` (configuration not stated), the EC50 is above 200 µM and the IC50 was above 200 µM.
For `O=c1[nH]c2ccc(CC(=S)N3CCOCC3)cc2o1`, the EC50 is above 200 µM and the concentration for half-maximal inhibition (IC50) is above 200 µM.
Take `Oc1[nH]c(=S)[nH]c1/C=C1/C(c2ccccc2)=Nc2ccccc21`: the EC50 was above 200 µM and the concentration for half-maximal inhibition (IC50) turned out to be 9.33 µM.
As to `CCC(C)C(=O)c1c(O)c(CC2OC2(C)C)c(O)c2c(C(O)CC)cc(=O)oc12` (configuration not stated), the EC50 was above 200 µM and the IC50 worked out at 5.62 µM.
Consider `CC(C)(C)c1ccc(O)c(C(O)c2cccnc2)c1` (configuration not stated), for which the EC50 was above 200 µM and the IC50 was 61.7 µM.
In the case of `O=C(O)/C=C/C(=O)Nc1ncn[nH]1`, the EC50 is above 1380 µM and the concentration for half-maximal inhibition (IC50) came to 1320 µM.
Regarding `COc1ccccc1NC(=S)Nc1cccc(C)n1`, the concentration giving a half-maximal response (EC50) is 16.6 µM and the IC50 turned out to be 61.7 µM.
With `N#Cc1c(N)n(-c2cccc(C(=O)O)c2)c(=O)c2cc([N+](=O)[O-])ccc12`, the EC50 is above 200 µM and the 50% inhibitory concentration (IC50) is above 200 µM.
With `CN(C)c1ccc(C(=C(c2ccc(N(C)C)cc2)c2ccc(N(C)C)cc2)c2ccc(N(C)C)cc2)cc1`, the EC50 is above 24.5 µM and the IC50 came out at 1 µM.
With `Clc1cccc(-c2nnc(-c3nn(-c4ccccc4)c4nc5ccccc5nc34)o2)c1`, the EC50 is above 4.68 µM and the IC50 is above 4.68 µM.
`COc1ccc(NC2(Br)C(=O)NC(=O)NC2C(=O)O)cc1` (configuration not stated): the EC50 is above 20 µM and the 50% inhibitory concentration (IC50) was above 20 µM.
With `NC(Cc1ccc(OCc2ccccc2)cn1)C(=O)OCc1ccccc1` (configuration not stated), the EC50 is above 200 µM and the IC50 was above 200 µM.
Turning to `CC(=O)OCC1OC(n2cc(C(F)(F)F)c(=O)[nH]c2=O)CC1OC(C)=O` (configuration not stated), the EC50 was above 200 µM and the IC50 was 2.45 µM.
For `O=C1NC(=O)C(CCSSCCC2NC(=O)NC2=O)N1` (configuration not stated), the EC50 is above 200 µM and the IC50 is above 200 µM.
Turning to `Cc1ccc2c(c1)C(=O)/C(=C\c1ccccc1)CCS2(=O)=O`, the EC50 is above 200 µM and the concentration for half-maximal inhibition (IC50) was found to be 2.88 µM.
In the case of `O=C1OC2C(O)COC2(O)C1(O)Cc1cc(O)c(O)c(Br)c1Br` (configuration not stated), the outcome was inactive.
On to `O=C(Cc1nc2ccccc2c(=O)n1-c1ccccc1Cl)c1ccncc1`, for which the EC50 is above 5.37 µM and the 50% inhibitory concentration (IC50) was above 5.37 µM.
In the case of `COC(C)(C)C/C=C/C(C)=C/C=C/C(C)=C\C=C\C(C)=C\C=C\C=C(C)\C=C\C=C(C)\C=C\C=C(C)\C=C\CC(C)(C)OC`, the result was inactive.
